From paper PMC3578862, “Single Residue Mutation in Active Site of Serine Acetyltransferase Isoform 3 from Entamoeba histolytica Assists in Partial Regaining of Feedback Inhibition by Cysteine” (PLoS ONE, 2013)

Assays:
[1] = molecular target: T1, Serine acetyltransferase isoform 3 (EhSAT3) (Entamoeba histolytica, UniProt Q401L4, S208H); experiment: SAT activity assay at […] nm, […] serine; […] inhibition at […]; type: biochemical
T1 construct: gene SAT 3

[2] = molecular target: T2, Serine acetyltransferase isoform 1 (EhSAT1) (Entamoeba histolytica, UniProt Q9U8X2, H208S); experiment: SAT activity assay at […] nm, […] serine; type: biochemical
T2 construct: gene EhSAT

N[C@@H](CO)C(=O)O = experiment: purified protein; type: biochemical, Entamoeba histolytica; settings: acetyl coenzyme A active site

Row | Molecule | IC50 [1] [µM] | IC50 [2] [µM] | Km (N[C@@H](CO)C(=O)O) [µM]
1 | N[C@@H](CS)C(=O)O [L-cysteine] | 3500 | 170 | –
2 | Serine acetyltransferase isoform 1 (EhSAT1) (Entamoeba histolytica; H208S) | – | – | 68.4
3 | Serine acetyltransferase isoform 3 (EhSAT3) (Entamoeba histolytica; S208H) | – | – | 185.5
